Reference: PubChem BioAssay AID1949 (Southern Research Institute, 2009)
≈ marks a conversion by molar mass, not a printed value. Results filed as inconclusive are left out. Calls of active or inactive are those of the source. How the calls were made is not given here.

System: M. tuberculosis H37Rv growth inhibition
Assay: Confirmatory growth inhibition assay against Mycobacterium tuberculosis H37Rv, potency (AID 1949);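 further: bacteria grown 7 days with compound before Alamar blue readout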

Structure (SMILES)	IC50
CC1CCCCC1NC(=O)CSc1nc2ccccc2c(=O)[nH]1 (centres undefined)	18.4 µg/mL (≈ 55.5 µM)
C=CCN1C(=O)C(O)(CC(=O)c2ccc(C)cc2C)c2ccccc21 (centres undefined)	14.6 µg/mL (≈ 43.5 µM)
COc1ccc(C(=O)NC(=S)Nc2ccc([N+](=O)[O-])cc2O)cc1Br	< 0.1 µg/mL
O=C(O)c1ccc(-n2nnnc2SCc2ccccc2F)cc1	> 50 µg/mL (inactive)
Cc1ccc(C(=O)Nc2nc(-c3ccccc3)c(-c3ccccc3)o2)cc1	< 0.1 µg/mL
O=C(NC(Nc1cccc([N+](=O)[O-])c1)C(Cl)(Cl)Cl)c1cccc(I)c1 (centres undefined)	11.7 µg/mL (≈ 22.8 µM)
Cc1ccc(C(=O)Nc2ccc([N+](=O)[O-])cc2C)cc1I	< 0.1 µg/mL
COC(=O)CSc1nnc(NC(=O)c2ccc(Cl)cc2)s1	0.16 µg/mL (≈ 0.465 µM)
CC(C)(C)c1ccc(OCC(=O)Nc2ccc3c(c2)OCCO3)c(Br)c1	4.25 µg/mL (≈ 10.1 µM)
CC1CCN(c2ccc(N)cc2)CC1	5.71 µg/mL (≈ 30 µM)
CCN(CC)c1ccc(NC(=O)c2cnccn2)cc1	2.37 µg/mL (≈ 8.77 µM)
O=C(Oc1cccc2cccnc12)c1ccc(Cl)c(S(=O)(=O)N2CCOCC2)c1	1.48 µg/mL (≈ 3.42 µM)
NC(CC(=O)c1ccc(Cl)cc1Cl)C(Cl)(Cl)Cl (centres undefined)	0.27 µg/mL (≈ 0.805 µM)
c1ccc(CCc2ccccc2-c2nc(-c3ccncc3)no2)cc1	8.77 µg/mL (≈ 26.8 µM)
COc1ccc(N2CCN(CC(O)COc3ccc(C)cc3C(C)(C)C)CC2)cc1 (centres undefined)	4.09 µg/mL (≈ 9.91 µM)
COC(=O)c1ccc(NC(=O)COc2ccc(-c3ccc(C#N)cc3)cc2)cc1	0.41 µg/mL (≈ 1.06 µM)
COc1cccc(C(=O)NC(=S)Nc2ccc(N3CCN(C(=O)c4cccs4)CC3)c(Cl)c2)c1	0.76 µg/mL (≈ 1.48 µM)
Cc1cccc(C(C)(C)C)c1OCCn1ccnc1	8.23 µg/mL (≈ 31.9 µM)
CC(C)CCNC(=O)C(=O)Nc1ccccc1Cl	0.84 µg/mL (≈ 3.13 µM)
CC(=O)Nc1nc2ccccc2n1CCOc1ccccc1	2.94 µg/mL (≈ 9.95 µM)

Structure (SMILES)	IC50
O=C(Oc1ccccc1)c1ccc(COC(=O)c2cc3ccccc3oc2=O)cc1	> 50 µg/mL (inactive)
Cc1ccc(NC(=O)c2ccc(OCC(=O)OC3CCCCC3)cc2)cc1	2.73 µg/mL (≈ 7.43 µM)
Cc1ccc(OCCCCNCCc2ccccc2)c(C)c1	9.13 µg/mL (≈ 30.7 µM)
COc1ccc(CCNC(=S)N2CCN(c3ccc(Cl)c(Cl)c3)CC2)cc1OC	6.47 µg/mL (≈ 14.2 µM)
CC(Sc1nnc(N)s1)C(=O)Nc1nc2c(s1)CCCC2 (centres undefined)	0.75 µg/mL (≈ 2.2 µM)
O=C(Nc1cc(Cl)ccc1O)c1cc(Cl)ccc1Cl	12.2 µg/mL (≈ 38.5 µM)
CCCC1(O)CC(c2ccc(Cl)cc2)NC(c2ccc(Cl)cc2)C1C (centres undefined)	2.34 µg/mL (≈ 6.18 µM)
N#C/C(=C/c1ccc([N+](=O)[O-])o1)c1ccc(C#N)cc1	2.96 µg/mL (≈ 11.2 µM)
Cc1ccc(N2CCN(CC(O)COc3ccc4ccccc4c3)CC2)c(C)c1 (centres undefined)	9.31 µg/mL (≈ 23.8 µM)
OCc1cn(-c2ccccc2)nc1-c1ccc2ccccc2c1	4.25 µg/mL (≈ 14.1 µM)
CC(=O)Oc1cccc2ccc(/C=C/c3c(F)cccc3Cl)nc12	< 0.1 µg/mL
COc1cc(CNC(C)c2ccccc2)cc(Br)c1OCc1ccc(F)cc1 (centres undefined)	4.06 µg/mL (≈ 9.14 µM)
COc1ccc(C(=O)NC(=S)Nc2ccc(N3CCCCC3)cc2)cc1OC	1.38 µg/mL (≈ 3.45 µM)
Cc1cc(Cl)ccc1OCC(O)CNC(C)c1ccccc1 (centres undefined)	8.02 µg/mL (≈ 25.1 µM)
FC(F)(F)c1cccc(NC(=S)Nc2ccc(Cl)cc2Cl)c1	12.1 µg/mL (≈ 33.1 µM)
COc1cccc(C2=CC(c3c(F)cccc3Cl)n3nnnc3N2)c1 (centres undefined)	7.55 µg/mL (≈ 21.1 µM)
Cc1ccc(C(=O)Nc2ccc(N3CCN(C)CC3)cc2)cc1Cl	46.2 µg/mL (≈ 134 µM)
CC(=O)Oc1cccc2ccc(/C=C/c3ccc(Cl)cc3)nc12	< 0.1 µg/mL
COc1ccc(-c2ccc(C#N)c(SCC(=O)OCc3ccccc3)n2)cc1	14.3 µg/mL (≈ 36.5 µM)
CCc1cccc(NC(=O)c2ccc3ccccc3n2)c1	11.4 µg/mL (≈ 41.1 µM)

Structure (SMILES)	IC50
CCOC(=O)C(C)Oc1ccc2c(=O)c(Oc3ccccc3Cl)coc2c1 (centres undefined)	8.87 µg/mL (≈ 22.8 µM)
COc1ccc(NC(=O)c2c(NC(=O)c3ccc([N+](=O)[O-])o3)sc3c2CCC3)cc1	0.26 µg/mL (≈ 0.608 µM)
CC(C)(C)c1cc(Cl)ccc1OCCn1ccnc1	1.94 µg/mL (≈ 6.96 µM)
CC(C)(C)c1ccc(C(=O)NC(=S)NCc2cccnc2)cc1	2.47 µg/mL (≈ 7.54 µM)
Cc1cc2ncn(Cc3ccccc3C)c2cc1C	11.1 µg/mL (≈ 44.4 µM)
COC(=O)C1=C(C)NC2=C(C(=O)CC(c3ccccc3)C2)C1c1ccccc1Br (centres undefined)	7.5 µg/mL (≈ 16.6 µM)
CCc1ccc(OCC(=O)NC2CCCCC2)c(Br)c1	> 50 µg/mL (inactive)
O=[N+]([O-])c1ccc(Sc2n[nH]c(-c3ccccc3)n2)nc1	10 µg/mL (≈ 33.5 µM)
CN(C)CCC(=O)c1ccc(Br)cc1	0.61 µg/mL (≈ 2.38 µM)
O=C(Oc1ccccc1)c1ccc(COC(=O)c2ccco2)cc1	2.69 µg/mL (≈ 8.35 µM)
CCCN(CCC)C(=S)NC(=O)c1ccc(OC)cc1	2.58 µg/mL (≈ 8.76 µM)
Cc1ccc(S(=O)(=O)c2nc(S(=O)(=O)Cc3ccc([N+](=O)[O-])cc3)sc2Cl)cc1	1.04 µg/mL (≈ 2.2 µM)
O=C(Nc1nc2c(s1)CCCC2)c1ccc(Br)s1	0.62 µg/mL (≈ 1.81 µM)
COc1ccc(CCNC(=S)N2CCN(C/C=C/c3ccccc3)CC2)cc1OC	1.73 µg/mL (≈ 4.06 µM)
COC(=O)CSc1nc(N2CCCCC2)c2c(c1C#N)CCCC2	0.17 µg/mL (≈ 0.492 µM)
Cc1ccc(Cl)c(OCC(O)Cn2cnc3cc(C)c(C)cc32)c1 (centres undefined)	8.12 µg/mL (≈ 23.5 µM)
O=C1C(=O)N(Cc2cccc3ccccc23)c2ccc(Cl)cc21	21.4 µg/mL (≈ 66.6 µM)
Nc1cc(N)c2cc(-c3ccccc3)oc2c1	> 50 µg/mL (inactive)
COc1ccc(-c2cc(C(F)F)n3ncc(C(=O)N4CCN(c5ccccc5)CC4)c3n2)cc1	> 50 µg/mL (inactive)
